The supplement of paper PMC10307832

How the values were obtained:
Assay in all cases: relative viability (nuclei count vs DMSO), 5 days (fraction); higher = more cells survive
Doxorubicin + Dasatinib = compound: COc1cccc2c1C(=O)c1c(O)c3c(c(O)c1C2=O)C[C@@](O)(C(=O)CO)C[C@@H]3O[C@H]1C[C@H](N)[C@H](O)[C@H](C)O1 [Doxorubicin] + Cc1nc(Nc2ncc(C(=O)Nc3c(C)cccc3Cl)s2)cc(N2CCN(CCO)CC2)n1 [Dasatinib] (partner 0.075 µM)
How it was run: (§1)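 Lung cancer cell lines were pin-tool dosed in 1536-well plates on the day after seeding, with either a lone drug or a fixed anchor-drug dose plus five library-drug doses (not always all listed) in √10 steps. Nuclei were counted on 4× images after 5 days. Relative viability is the ratio of treated-well to vehicle-well nuclei counts, with each value a median of duplicate plates.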

[1] = compound: COc1cccc2c1C(=O)c1c(O)c3c(c(O)c1C2=O)C[C@@](O)(C(=O)CO)C[C@@H]3O[C@H]1C[C@H](N)[C@H](O)[C@H](C)O1 [Doxorubicin] + CC(=O)c1c(C)c2cnc(Nc3ccc(N4CCNCC4)cn3)nc2n(C2CCCC2)c1=O [Palbociclib] (partner 0.5 µM)
How it was run: as §1

BAY61-3606 + Linsitinib = compound: COC1=C(C=C(C=C1)C2=CC3=NC=CN3C(=N2)NC4=C(C=CC=N4)C(=O)N)OC [BAY61-3606] + C[C@]1(O)C[C@@H](c2nc(-c3ccc4ccc(-c5ccccc5)nc4c3)c3c(N)nccn32)C1 [Linsitinib] (partner 1 µM)
How it was run: as §1

BAY61-3606 + Bortezomib = compound: COC1=C(C=C(C=C1)C2=CC3=NC=CN3C(=N2)NC4=C(C=CC=N4)C(=O)N)OC [BAY61-3606] + CC(C)C[C@H](NC(=O)[C@H](Cc1ccccc1)NC(=O)c1cnccn1)B(O)O [Bortezomib] (partner 0.002 µM)
How it was run: as §1

Row | Cell Line | relative viability (Doxorubicin + Dasatinib; first compound 0.001 µM) | relative viability (Doxorubicin + Dasatinib; first compound 0.003162 µM) | relative viability (Doxorubicin + Dasatinib; first compound 0.01 µM) | relative viability (Doxorubicin + Dasatinib; first compound 0.03162 µM) | relative viability (Doxorubicin + Dasatinib; first compound 0.1 µM) | relative viability ([1]; first compound 0.001 µM) | relative viability ([1]; first compound 0.003162 µM) | relative viability ([1]; first compound 0.01 µM) | relative viability ([1]; first compound 0.03162 µM) | relative viability ([1]; first compound 0.1 µM) | relative viability (BAY61-3606 + Linsitinib; first compound 0.02 µM) | relative viability (BAY61-3606 + Linsitinib; first compound 0.06325 µM) | relative viability (BAY61-3606 + Linsitinib; first compound 0.2 µM) | relative viability (BAY61-3606 + Linsitinib; first compound 0.6325 µM) | relative viability (BAY61-3606 + Linsitinib; first compound 2 µM) | relative viability (BAY61-3606 + Bortezomib; first compound 0.02 µM) | relative viability (BAY61-3606 + Bortezomib; first compound 0.06325 µM) | relative viability (BAY61-3606 + Bortezomib; first compound 0.2 µM) | relative viability (BAY61-3606 + Bortezomib; first compound 0.6325 µM) | relative viability (BAY61-3606 + Bortezomib; first compound 2 µM)
1 | 201T | 0.537 | 0.636 | 0.561 | 0.583 | 0.546 | 0.351 | 0.321 | 0.345 | 0.349 | 0.354 | 1.05 | 0.975 | 0.972 | 1.01 | 1.07 | 1.03 | 1.1 | 1.09 | 1.13 | 1.09
2 | A549 |  |  |  |  |  |  |  |  |  |  | 0.765 | 0.63 | 0.642 | 0.77 | 0.588 |  |  |  |  | 
3 | A-427 | 0.745 | 0.743 | 0.621 | 0.721 | 0.673 | 0.518 | 0.526 | 0.517 | 0.449 | 0.363 | 1.14 | 1.07 | 1.06 | 1.06 | 1.15 | 1.04 | 0.889 | 0.994 | 1.05 | 0.871
4 | ABC-1 | 0.612 | 0.56 | 0.511 | 0.33 | 0.224 | 0.651 | 0.712 | 0.543 | 0.471 | 0.368 | 0.774 | 0.948 | 0.879 | 0.827 | 0.631 | 0.291 | 0.308 | 0.35 | 0.427 | 0.284
5 | BEN | 0.366 | 0.296 | 0.329 | 0.294 | 0.418 | 0.454 | 0.458 | 0.46 | 0.441 | 0.465 | 1.04 | 0.805 | 1.06 | 1.01 | 0.793 | 0.99 | 0.829 | 0.764 | 0.799 | 0.931
6 | CAL-12T | 0.302 | 0.461 | 0.346 | 0.195 | 0.118 | 0.41 | 0.527 | 0.486 | 0.279 | 0.174 | 0.903 | 0.755 | 0.818 | 0.85 | 0.388 | 1.2 | 0.939 | 0.862 | 0.78 | 0.799
7 | COR-L23 | 0.466 | 0.629 | 0.486 | 0.27 | 0.128 | 0.327 | 0.274 | 0.236 | 0.181 | 0.106 | 1.02 | 1.07 | 0.957 | 0.903 | 0.641 | 1.06 | 1.12 | 0.934 | 0.962 | 0.714
8 | COR-L 105 | 0.431 | 0.355 | 0.323 | 0.257 | 0.261 | 0.436 | 0.387 | 0.367 | 0.37 | 0.327 | 1.11 | 1.02 | 0.926 | 0.812 | 0.616 | 0.85 | 0.688 | 0.622 | 0.807 | 0.388
9 | Calu-6 |  |  |  |  |  |  |  |  |  |  | 0.977 | 1.02 | 0.893 | 0.901 | 0.759 | 1.12 | 1.15 | 1.06 | 1.01 | 0.831
10 | ChaGo-K-1 | 0.633 | 0.62 | 0.56 | 0.479 | 0.543 | 0.962 | 0.912 | 0.911 | 0.939 | 0.974 |  |  |  |  |  | 1.22 | 0.933 | 1.03 | 0.917 | 1.1
11 | EBC-1 |  |  |  |  |  |  |  |  |  |  | 1.02 | 0.91 | 0.835 | 0.949 | 0.628 | 0.571 | 0.632 | 0.616 | 0.569 | 0.459
12 | EKVX | 0.581 | 0.504 | 0.601 | 0.539 | 0.501 | 0.794 | 0.312 | 0.342 | 0.31 | 0.374 | 1.12 | 0.981 | 0.99 | 0.946 | 0.935 | 1.12 | 1.09 | 1.03 | 1.16 | 1.06
13 | EMC-BAC-2 | 0.357 | 0.316 | 0.263 | 0.171 | 0.12 | 0.524 | 0.465 | 0.442 | 0.383 | 0.403 | 0.837 | 0.862 | 0.852 | 0.876 | 0.833 | 1.11 | 1.13 | 1.06 | 1.09 | 1.08
14 | EPLC-272H | 0.41 | 0.418 | 0.371 | 0.417 | 0.343 | 0.279 | 0.28 | 0.301 | 0.328 | 0.29 | 1.18 | 1.06 | 1.07 | 1.19 | 1.26 | 1.01 | 0.931 | 0.915 | 0.958 | 0.951
15 | H3255 | 0.359 | 0.388 | 0.436 | 0.333 | 0.33 | 0.306 | 0.315 | 0.306 | 0.348 | 0.263 | 0.989 | 0.987 | 1.07 | 1.18 | 0.854 | 0.932 | 0.611 | 0.724 | 0.822 | 0.725
16 | HARA | 0.26 | 0.344 | 0.296 | 0.261 | 0.23 | 0.234 | 0.256 | 0.259 | 0.236 | 0.263 | 1.03 | 1.01 | 0.972 | 1.06 | 0.931 | 1.08 | 1.14 | 1.19 | 1.09 | 1.1
17 | HCC-15 |  | 0.654 | 0.493 | 0.191 | 0.0861 | 0.743 | 0.733 | 0.522 | 0.681 | 0.488 | 0.964 | 0.988 | 0.814 | 0.876 | 0.725 | 1.04 | 1.06 | 0.967 | 0.937 | 1.01
18 | HCC-44 |  |  |  |  |  | 0.99 | 0.981 | 1 | 1.03 | 0.933 | 0.636 | 0.695 | 0.722 | 0.762 | 0.751 | 0.889 | 0.847 | 0.845 | 0.878 | 0.947
